Where two headings read alike, the source gives them in different places.
Tests used:
[1] = General cytotoxicity on primary differentiated HepaRG cells (72 h); assay type: cell-based; details: human, general toxicity, mean value from several measurements
In short: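 Differentiated HepaRG cells, maintained a week in basal hepatic medium with maintenance/metabolism supplement, were plated at 25×10^3 cells/well overnight. Compounds (200 μM to 0.2 nM) were added for 72 h before viability readout.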

CDK2/Cyclin A = CDK2/Cyclin A (Homo sapiens, UniProt P24941); test: Inhibition of CDK2/Cyclin A kinase activity (ADP-Glo); assay type: biochemical
In short: (§1)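 Kinase preincubated with compound (11 points, 4-fold steps from 50 μM) for 10 minutes at 25° C. in kinase buffer A with DTT, then reacted 40-60 minutes at 25° C. with ATP and CDKtide, Histone H1 or PDKtide substrate. ADP formation read by ADP-Glo luminescence; IC50 from four-parameter fit.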

[2] = tested on: NCl-H82 (small cell lung cancer); test: Antiproliferative assay on NCl-H82 cells (AlamarBlue, 120 h); assay type: cell-based; details: mean value from several measurements
Method: The antiproliferative activity of CDK7 inhibitors according to the present invention was evaluated in a cell test using continuous cell cultures: MDA-MB-468 (triple negative breast cancer, ATCC® HTB-132™) and NCl-H82 (small cell lung cancer, ATCC® HTB-175™) using a viable AlamarBlue dye (Thermo Fisher Scientific Inc, order no. DAL1100). The cells were grown in DMEM (PanEco, order no. C330π) and RPMI-1640 (PanEco, order no. C330π), respectively. The basal growth medium was enriched with L-glutamine at a concentration of 2 mM (PanEco, order no. Φ032) and 10% fetal bovine serum (Gibco, order no. 16140-071). The night before measurement, MDA-MB-468 adherent cells were detached from plastic with a solution of trypsin-EDTA (PanEco, order no. Π039π), the solution was then inactivated by a DMEM complete medium, centrifuged at 1000 RPM (Eppendorf, 5804 R), a suspension of cells was prepared in a DMEM complete medium, introduced into 96-well culture plates (Corning Inc, order no. 3599) at 8×10^3 cells in 100 μl of medium per well. The next day, test compounds were dissolved in DMSO and diluted with a DMEM complete medium to a final concentration ranging from 50 μM to 10 pM. Diluted compounds in a volume of 50 μl were introduced into the plate wells with cells in triplicates (the final concentration of DMSO was no more than 1%) and incubated at 37° C. in an incubator with 5% CO2 for 96 hours. NCl-H82 suspension cell line was prepared on the day of the analysis. 10×10^3 cells in 100 μl of an RPMI-1640 complete medium were added to each well of a 96-well plate. The procedure for sample dilution is as described above. Cells with test compounds were incubated at 37° C. in an incubator with 5% CO2 for 120 hours. Following incubation, […] of AlamarBlue reagent (Thermo Fisher Scientific Inc., order no. DAL1100) was added to the wells, the contents of the plates were stirred in an orbital shaker (Biosan, Latvia), then further incubated for 5.5-6 hours at 37° C. in an incubator with 5% CO2. The number of viable cells was detected using the Infinite M200Pro microplate spectrophotometer (Tecan Group Ltd, Switzerland) by way of measuring a fluorescent signal at an excitation wavelength (λEx) of 540 nm and an emission wavelength (λEm) of 590 nm.
IC50 value was calculated using the Magellan software (Tecan Group Ltd, Switzerland) by approximating experimental points by four-parameter model with the optimization by Levenberg-Marquardt: […]

CDK9/Cyclin K = CDK9/Cyclin K (Homo sapiens, UniProt P50750); test: Inhibition of CDK9/Cyclin K kinase activity (ADP-Glo); assay type: biochemical
In short: as §1

CDK7/Cyclin H/MNAT1 = CDK7/Cyclin H/MNAT1 (Homo sapiens, UniProt P50613); test: Inhibition of CDK7/Cyclin H/MNAT1 kinase activity (ADP-Glo); assay type: biochemical
In short: as §1

[3] = tested on: MDA-MB-468 (triple negative breast cancer); test: Antiproliferative assay on MDA-MB-468 cells (AlamarBlue, 96 h); assay type: cell-based; details: Homo sapiens, mean value from several measurements
[4] = Passive membrane permeability through PAMPA artificial membrane, pH 7.4; assay type: in vitro ADME; details: pH 7.4, 10 μmol, 20 hours at room temperature, mean of multiple measurements, read-out: PAMPA passive permeability Pe
Method: Passive membrane permeability of the compounds described in the present invention was determined using the PAMPA (parallel artificial membrane permeability assay) model at pH 7.4.
We used a 96-well plate (Corning® BioCoat® Pre-coated PAMPA Plate System, order no. 353015), composed of acceptor and donor parts with cell membrane-modeling PVDF filter pre-impregnated with a lecithin-phospholipid bilayer. The substance (at a concentration of 10 μmol) in a 0.01 M phosphate buffer with pH 7.4 was introduced into a donor well of the plate, and pure buffer was introduced into an acceptor well; afterwards, the both parts were combined and incubated for 20 hours at room temperature so that the compound was redistributed between the two wells and the membrane. Verapamil (USP, USA, order no. 1711202) and propranolol (MCE LLC, USA, cat. no. HY-B0573/CS-2680) were used as control compounds with high and medium permeability. Samples were analyzed by reversed-phase HPLC with UV detection (Agilent 1260 chromatograph with UV detector) by determining their peak areas in the donor and acceptor wells.
Permeability (Pe, cm/s) and retention factor (R, %) in the lipid bilayer were calculated using the formula:
[formula] [formula] • Co is donor-well concentration of the substance at the initial moment of time t (μM); • CA (t) is acceptor-well concentration of the substance at time t (μM); • Vd is donor-well volume (0.3 ml); • Va is acceptor-well volume (0.15 ml).
[formula] • A is filter area (0.3 cm^2); • t is incubation time (72000 s);

[5] = mean of multiple measurement series, ATP 50 μM, read-out: CDK2/Cyclin A IC50
[6] = mean value from several measurements, read-out: IC50 CDK2/Cyclin A
[7] = mean of multiple measurement series, ATP 50 μM, read-out: CDK9/Cyclin K IC50
[8] = mean value from several measurements, read-out: IC50 CDK9/Cyclin K
[9] = mean of multiple measurement series, ATP 10 μM, read-out: CDK7/Cyclin H/MNAT1 IC50
[10] = mean value from several measurements, read-out: IC50 CDK7/Cyclin H/MNAT

Sequence of CDK9/Cyclin K (P50750 whole entry): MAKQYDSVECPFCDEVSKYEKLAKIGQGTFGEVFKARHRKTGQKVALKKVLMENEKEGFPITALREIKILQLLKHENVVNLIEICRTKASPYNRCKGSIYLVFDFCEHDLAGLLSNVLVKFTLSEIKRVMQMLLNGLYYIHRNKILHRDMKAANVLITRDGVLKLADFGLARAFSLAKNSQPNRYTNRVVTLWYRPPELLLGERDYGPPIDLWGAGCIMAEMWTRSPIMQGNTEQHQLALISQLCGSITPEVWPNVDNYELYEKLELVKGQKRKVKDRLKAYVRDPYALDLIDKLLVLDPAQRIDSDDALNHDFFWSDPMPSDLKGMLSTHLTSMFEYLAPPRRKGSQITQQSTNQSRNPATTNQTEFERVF
Sequence of CDK9/Cyclin K (O75909 whole entry partner): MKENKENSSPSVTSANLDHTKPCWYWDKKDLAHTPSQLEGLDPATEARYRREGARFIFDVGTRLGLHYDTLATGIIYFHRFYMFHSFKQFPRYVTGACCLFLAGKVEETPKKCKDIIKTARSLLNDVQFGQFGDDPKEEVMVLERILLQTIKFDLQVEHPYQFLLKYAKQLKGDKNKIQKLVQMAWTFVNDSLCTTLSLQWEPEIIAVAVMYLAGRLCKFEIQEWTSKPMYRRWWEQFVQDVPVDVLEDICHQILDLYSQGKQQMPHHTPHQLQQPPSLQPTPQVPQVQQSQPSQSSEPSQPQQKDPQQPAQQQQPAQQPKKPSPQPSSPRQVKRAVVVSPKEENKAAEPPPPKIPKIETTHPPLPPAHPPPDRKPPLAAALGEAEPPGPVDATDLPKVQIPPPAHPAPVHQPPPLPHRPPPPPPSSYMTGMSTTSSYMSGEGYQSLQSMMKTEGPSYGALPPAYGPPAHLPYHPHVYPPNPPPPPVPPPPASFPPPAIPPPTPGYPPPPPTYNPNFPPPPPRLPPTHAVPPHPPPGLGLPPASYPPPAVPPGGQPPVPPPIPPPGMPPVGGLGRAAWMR
Sequence of CDK7/Cyclin H/MNAT1 (P50613 whole entry): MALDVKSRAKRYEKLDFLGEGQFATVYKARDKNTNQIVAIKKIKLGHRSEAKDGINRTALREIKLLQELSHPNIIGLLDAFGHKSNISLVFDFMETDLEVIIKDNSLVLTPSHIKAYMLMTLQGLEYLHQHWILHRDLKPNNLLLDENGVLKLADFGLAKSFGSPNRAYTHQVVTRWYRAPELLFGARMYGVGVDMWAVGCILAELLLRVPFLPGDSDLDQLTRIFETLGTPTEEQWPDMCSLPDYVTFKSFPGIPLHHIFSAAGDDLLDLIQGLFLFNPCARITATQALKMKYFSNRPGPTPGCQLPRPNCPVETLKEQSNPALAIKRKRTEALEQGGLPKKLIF
Sequence of CDK7/Cyclin H/MNAT1 (P51946 whole entry partner): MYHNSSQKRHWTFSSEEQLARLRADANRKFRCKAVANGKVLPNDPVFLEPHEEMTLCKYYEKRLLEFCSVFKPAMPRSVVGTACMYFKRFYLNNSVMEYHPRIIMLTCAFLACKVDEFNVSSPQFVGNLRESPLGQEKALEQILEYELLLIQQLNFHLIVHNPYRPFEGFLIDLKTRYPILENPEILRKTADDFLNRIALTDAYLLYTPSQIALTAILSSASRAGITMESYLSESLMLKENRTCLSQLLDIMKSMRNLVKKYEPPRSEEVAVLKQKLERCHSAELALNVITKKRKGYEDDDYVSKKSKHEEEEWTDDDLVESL
Sequence of CDK7/Cyclin H/MNAT1 (P51948 whole entry partner): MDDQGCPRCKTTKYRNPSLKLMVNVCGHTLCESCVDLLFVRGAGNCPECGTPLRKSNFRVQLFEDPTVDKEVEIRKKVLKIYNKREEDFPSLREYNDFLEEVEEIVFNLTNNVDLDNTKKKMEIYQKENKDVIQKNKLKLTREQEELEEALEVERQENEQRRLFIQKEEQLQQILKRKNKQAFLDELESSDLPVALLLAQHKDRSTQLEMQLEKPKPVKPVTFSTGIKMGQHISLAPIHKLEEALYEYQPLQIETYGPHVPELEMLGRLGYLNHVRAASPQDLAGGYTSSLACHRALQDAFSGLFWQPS

Row | SMILES | CC50 at 72 h [1] [nM] | IC50 (CDK2/Cyclin A; [5]) [nM] | IC50 (CDK2/Cyclin A; [6]) [nM] | IC50 [2] [nM] | IC50 (CDK9/Cyclin K; [7]) [nM] | IC50 (CDK9/Cyclin K; [8]) [nM] | IC50 (CDK7/Cyclin H/MNAT1; [9]) [nM] | IC50 (CDK7/Cyclin H/MNAT1; [10]) [nM] | IC50 [3] [nM] | Papp at 20 h, 10 μmol [4] [×10⁻⁶ cm/s]
1 | Cn1cc(-n2ccc3c(-c4nc(N[C@H]5CCCNC5)ncc4C(F)(F)F)c[nH]c3c2=O)ccc1=O [CDK7_1052, 1-methyl-5-[7-oxo-3-(2-{[(3S)-piperidin-3-yl]amino}-5-(trifluoromethyl)py-rimidin-4-yl)-1H,6H,7H-pyrrolo[2,3-c]pyridin-6-yl]-1,2-dihydropyridin-2-one] | > 2000 | 12400 | > 200 | 100 to 1000 | 479 | > 200 | < 5 | < 5 | 100 to 1000 | –
2 | Cc1nnc2n1CCCc1c(-c3nc(N[C@H]4CCCNC4)ncc3C(F)(F)F)c[nH]c1-2 [CDK7_1236, 4-{5-methyl-3,4,6,13-tetraazatricyclo[8.3.0.0^2,^6]trideca-1(10),2,4,11-tetraen-11-yl}-N-[(3S)-piperidin-3-yl]-5-(trifluoromethyl)py-rimidin-2-amine] | > 2000 | – | > 200 | 10 to 100 | – | 50 to 200 | – | < 5 | 10 to 100 | –
3 | COCCN1CCCc2c(-c3nc(N[C@H]4CCC(C)(C)NC4)ncc3C(F)(F)F)c[nH]c2C1=O [CDK7_1268, 3-(2-{[(3S)-6,6-dimethylpiperidin-3-yl]amino}-5-(trifluoromethyl)py-rimidin-4-yl)-7-(2-methoxyethyl)-1H,4H,5H,6H,7H, 8H-pyrrolo[2,3-c]azepin-8-one] | > 2000 | – | > 200 | 10 to 100 | – | > 200 | – | – | 10 to 100 | –
4 | Cn1cc(-n2ccc3c(-c4nc(N[C@H]5CCC6(CC6)NC5)ncc4C(F)(F)F)c[nH]c3c2=O)cn1 [CDK7_1199, 3-(2-{[(6S)-4-azaspiro[2.5]octan-6-yl]amino}-5-(trifluoromethyl)py-rimidin-4-yl)-6-(1-methyl-1H-pyrazol-4-yl)-1H,6H,7H-pyrrolo[2,3-c]pyridin-7-one] | – | 3390 | > 200 | < 10 | 843 | > 200 | < 5 | < 5 | < 10 | –
5 | CN1Cc2c(-c3nc(N[C@H]4CCCNC4)ncc3C(F)(F)F)c[nH]c2C1=O [CDK7_944, 5-methyl-3-(2-{[(3S)-piperidin-3-yl]amino}-5-(trifluoromethyl)pyrimidin-4-yl)-1H,4H,5H,6H-pyrrolo[2,3-c]pyrrol-6-one] | < 100 | – | > 200 | – | – | 5 to 50 | – | < 5 | < 10 | < 1
6 | CN(C)C(=O)c1cc(-c2nc(N[C@H]3CCCNC3)ncc2C(F)(F)F)c[nH]1 [CDK7_536, N,N-dimethyl-4-(2-{[(3S)-piperidin-3-yl]amino}-5-(trifluoromethyl)pyrimidin-4-yl)-1H-pyrrole-2-carboxamide] | 500 to 2000 | – | > 200 | – | – | 5 to 50 | – | < 5 | 10 to 100 | 1 to 5
7 | FC(F)(F)c1cnc(N[C@H]2CCCNC2)nc1-c1c[nH]c(-c2ccccc2)c1 [CDK7_533, 4-(5-phenyl-1H-pyrrol-3-yl)-N-[(3S)-piperidin-3-yl]-5-(trifluoromethyl) pyrimidin-2-amine] | 500 to 2000 | – | > 200 | – | – | > 200 | – | 50 to 200 | 100 to 1000 | < 1
8 | Cn1cc(NC(=O)c2cc(-c3nc(N[C@H]4CCCNC4)ncc3C(F)(F)F)c[nH]2)cn1 [CDK7_835, N-(1-methyl-1H-pyrazol-4-yl)-4-(2-{[(3S)-piperidin-3-yl]amino}-5-(trifluoromethyl)pyrimidin-4-yl)-1H-pyrrole-2-carboxamide] | > 2000 | – | > 200 | – | – | 5 to 50 | – | 5 to 50 | 100 to 1000 | < 1
9 | Nc1ccccc1Oc1nc(N[C@H]2CCCNC2)ncc1C(F)(F)F [CDK7_548, 4-(2-aminophenoxy)-N-[(3S)-piperidin-3-yl]-5-(trifluoromethyl) pyrimidin-2-amine] | 500 to 2000 | – | > 200 | – | – | 5 to 50 | – | 5 to 50 | 10 to 100 | 1 to 5
10 | CP(C)(=O)c1ccccc1Nc1nc(N[C@H]2CCCNC2)ncc1C(F)(F)F [CDK7_735, N4-[2-(dimethylphos-phoryl)phenyl]-N2-[(3S)-piperidin-3-yl]-5-(trifluoromethyl) pyrimidine-2,4-diamine] | > 2000 | – | > 200 | – | – | 5 to 50 | – | < 5 | 100 to 1000 | < 1
11 | O=C(NC1CC1)c1cc(-c2nc(N[C@H]3CCCNC3)ncc2C(F)(F)F)c[nH]1 [CDK7_951, N-cyclopropyl-4-(2-{[(3S)-piperidin-3-yl]amino}-5-(trifluoromethyl)pyrimidin-4-yl)-1H-pyrrole-2-carboxamide] | 500 to 2000 | – | > 200 | – | – | 5 to 50 | – | < 5 | 10 to 100 | < 1

From patent US20260137698A1, “CYCLIN-DEPENDENT KINASE 7 INHIBITORS” (JOINT STOCK COMPANY «BIOCAD», priority 2022, published 2026)
